Experimental findings from patent publication US20260159512A1, “BCAT2 INHIBITORS” (AGIOS PHARMACEUTICALS, INC., priority 2021, published 2026) are described below.

In general, pIC50 refers to the negative decadic logarithm of the IC50, by convention in mol/L.

pIC50: −log10 of the molar value.

Common to all, as to details: average where tested multiple times
For one test, the target named is T1, hBCAT1 (Homo sapiens, UniProt P54687).
T1 sequence (P54687 1-386): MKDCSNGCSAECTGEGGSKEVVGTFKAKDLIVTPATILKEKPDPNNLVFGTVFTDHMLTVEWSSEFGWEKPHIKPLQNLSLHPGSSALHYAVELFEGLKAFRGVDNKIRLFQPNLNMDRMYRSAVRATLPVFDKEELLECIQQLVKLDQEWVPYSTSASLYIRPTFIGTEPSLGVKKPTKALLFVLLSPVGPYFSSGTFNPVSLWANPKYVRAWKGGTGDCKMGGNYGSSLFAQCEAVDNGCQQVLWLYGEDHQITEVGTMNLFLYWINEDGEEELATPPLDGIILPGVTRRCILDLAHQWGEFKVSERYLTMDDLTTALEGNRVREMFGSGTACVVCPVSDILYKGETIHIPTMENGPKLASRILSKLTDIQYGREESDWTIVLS
Put plainly: BCAT1 in vitro enzyme inhibition assay (resazurin/diaphorase-coupled fluorescence). It counts as biochemical. In short, it runs like this:
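Ten-point, 3-fold compound series (top final 100 μM, delivered 1:50 from 50× DMSO stocks) tested against hBCAT1. Inhibition detected via diaphorase-coupled resazurin fluorescence, duplicate wells, with values from repeated runs averaged.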
(Alamar Blue is a resazurin reagent that responds to reducing activity.)

Test [1] addresses T2, BCAT2 (Homo sapiens, UniProt O15382).
T2 sequence (O15382 28-392): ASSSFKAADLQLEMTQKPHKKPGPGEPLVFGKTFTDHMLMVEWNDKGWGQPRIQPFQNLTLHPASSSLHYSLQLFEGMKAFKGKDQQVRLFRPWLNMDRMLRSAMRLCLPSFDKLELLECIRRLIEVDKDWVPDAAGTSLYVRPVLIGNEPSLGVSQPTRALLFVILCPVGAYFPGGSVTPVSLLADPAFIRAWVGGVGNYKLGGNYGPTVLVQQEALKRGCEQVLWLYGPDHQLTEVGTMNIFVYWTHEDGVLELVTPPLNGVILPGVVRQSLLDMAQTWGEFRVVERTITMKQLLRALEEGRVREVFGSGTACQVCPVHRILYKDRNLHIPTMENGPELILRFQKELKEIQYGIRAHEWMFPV
Put plainly: BCAT2 in vitro enzyme inhibition assay (resazurin/diaphorase-coupled fluorescence). It counts as biochemical. In short, it runs like this:
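Coupled fluorescence readout: glutamate formed from L-leucine/α-ketoglutarate transamination drives GDH/NAD/diaphorase reduction of resazurin (Ex 540/Em 590). Human BCAT2 was first exposed 1 h at room temperature to compound, top final 100 μM in 3-fold, 10-point series; substrate reaction ran 1 h before SDS quench, in technical duplicate with DMSO max and enzyme-free min controls.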

Test [2] addresses T2, BCAT2. Put plainly: BCAT2 in vitro cell inhibition using engineered A549 cells (KMV cell assay, 13C6-KMV by LC-MS/MS). It counts as cell-based. Details: The result was an engineered A549 cell line that expressed endogenous BCAT2; endogenous in cells; host or cells: A549 cells with MUT and BCAT1 knocked out by CRISPR/CAS9; key to BCAT2 Cell Inhibition: A: less than or equal to 0.100 μM; B: greater than 0.100 and less than or equal to 0.500 μM; C: greater than 0.500 and less than or equal to 1.000 μM; d: greater than 1.000 μM; E: no fit.

Consider `Cn1cc(-c2nc3cnc(-n4ccnn4)cc3n2[C@@H]2CCC[C@H](NC(=O)c3ncc(C(F)F)s3)C2)cn1` [Example 46, 5-(difluoromethyl)-N-((1S,3R)-3-(2-(1-methyl-1H-pyrazol-4-yl)-6-(1H-1,2,3-triazol-1-yl)-1H-imidazo[4,5-c]pyridin-1-yl)cyclohexyl)thiazole-2-carboxamide], for which the negative logarithm of the IC50 (pIC50) on hBCAT1 is less than 5.30; against BCAT2 [1], less than 6.00. Besides, the “BCAT2 Cell Inhibition” value on BCAT2 [2] is “E”.
As for `Cc1cnc(-c2cc3c(cn2)nc(-c2ccccn2)n3[C@@H]2CCC[C@H](NC(=O)c3ccc(Br)s3)C2)o1` [Example 18, 5-bromo-N-((1S,3R)-3-(6-(5-methyloxazol-2-yl)-2-(pyridin-2-yl)-1H-imidazo[4,5-c]pyridin-1-yl)cyclohexyl)thiophene-2-carboxamide], the negative-log IC50 (pIC50) against hBCAT1 is more than 6.30; on BCAT2 [1], not below 7.00; on BCAT2 [2], not below 7.00.
Regarding `CC(C)Cc1nc2cnc(-n3nccn3)cc2n1[C@@H]1C[C@@H](O)C[C@H](NC(=O)c2ccc(Cl)s2)C1` (single isomer, unassigned) [Example 395], the negative-log IC50 (pIC50) is more than 6.30 on hBCAT1, not below 7.00 on BCAT2 [1] and not below 7.00 against BCAT2 [2].
Turning to `CC(=O)N1C[C@@H](NC(=O)c2ncc(C(F)F)s2)C[C@@H](n2c(-c3ccccc3F)nc3cnc(-c4ncco4)cc32)C1` [Example 127, N-((3S,5R)-1-acetyl-5-(2-(2-fluorophenyl)-6-(oxazol-2-yl)-1H-imidazo[4,5-c]pyridin-1-yl)piperidin-3-yl)-5-(difluoromethyl)thiazole-2-carboxamide], the figures for the pIC50 on hBCAT1, against BCAT2 [1] and against BCAT2 [2] were 5.30 to 6.00, 6.30 to 7.00 and less than 6.00, respectively.
As for `CC(C)Cc1nc2cnc(-c3ccccc3CC#N)cc2n1[C@@H]1CCC[C@H](NC(=O)c2ccc(Cl)s2)C1` [Example 332, 5-chloro-N-((1S,3R)-3-(6-(2-(cyanomethyl)phenyl)-2-isobutyl-1H-imidazo[4,5-c]pyridin-1-yl)cyclohexyl)thiophene-2-carboxamide], the pIC50 was 6.00 to 6.30 against hBCAT1, 6.30 to 7.00 against BCAT2 [1] and 6.00 to 6.30 at BCAT2 [2].
As to `CO[C@H]1C[C@H](NC(=O)c2ncc(Cl)s2)C[C@H](n2c(CC(C)(C)C)nc3cnc(-c4ccccn4)cc32)C1` (single isomer, unassigned) [Example 442], the pIC50 is 5.30 to 6.00 against hBCAT1, not below 7.00 against BCAT2 [1] and 6.30 to 7.00 against BCAT2 [2].
Turning to `C#Cc1ccc(C(=O)N[C@H]2CCC[C@@H](n3c(CC(C)C)nc4cnc(-c5nc[nH]n5)cc43)C2)s1` [Example 341, 5-ethynyl-N-((1S,3R)-3-(2-isobutyl-6-(1H-1,2,4-triazol-3-yl)-1H-imidazo[4,5-c]pyridin-1-yl)cyclohexyl)thiophene-2-carboxamide], the pIC50 at hBCAT1 is 5.30 to 6.00; on BCAT2 [1] it was not below 7.00; against BCAT2 [2], not below 7.00.
For `O=C(N[C@H]1CCC[C@@H](n2c(-n3cccn3)nc3cnc(-n4nccn4)cc32)C1)c1ncc(C(F)F)s1` [Example 56, N-((1S,3R)-3-(2-(1H-pyrazol-1-yl)-6-(2H-1,2,3-triazol-2-yl)-1H-imidazo[4,5-c]pyridin-1-yl)cyclohexyl)-5-(difluoromethyl)thiazole-2-carboxamide], the negative logarithm of the IC50 (pIC50) at hBCAT1 was 5.30 to 6.00; against BCAT2 [1] it was not below 7.00; against BCAT2 [2], 6.30 to 7.00.
As to `CC(C)Cc1nc2cnc(-c3cc4ccccc4o3)cc2n1[C@@H]1CCC[C@H](NC(=O)c2ncc(Cl)s2)C1` [Example 320, N-((1S,3R)-3-(6-(benzofuran-2-yl)-2-isobutyl-1H-imidazo[4,5-c]pyridin-1-yl)cyclohexyl)-5-chlorothiazole-2-carboxamide], the figures for the negative-log IC50 (pIC50) against hBCAT1 and on BCAT2 [1] were 5.30 to 6.00 and 6.30 to 7.00, respectively. Further, the “BCAT2 Cell Inhibition” value at BCAT2 [2] is on record as “E”.
For `COc1ccccc1-c1nc2cnc(-c3nc[nH]n3)cc2n1[C@@H]1CCC[C@H](NC(=O)c2ncc(Cl)s2)C1` [Example 352, 5-chloro-N-((1S,3R)-3-(2-(2-methoxyphenyl)-6-(1H-1,2,4-triazol-3-yl)-1H-imidazo[4,5-c]pyridin-1-yl)cyclohexyl)thiazole-2-carboxamide], the negative logarithm of the IC50 (pIC50) against hBCAT1 is more than 6.30; against BCAT2 [1], not below 7.00; on BCAT2 [2] it was not below 7.00.
With `O=C(N[C@H]1CCC[C@@H](n2c(-c3ccccc3F)nc3cnc(O[C@H]4CCOC4)cc32)C1)c1ncc(Cl)s1` [Example 267, 5-chloro-N-((1S,3R)-3-(2-(2-fluorophenyl)-6-(((S)-tetrahydrofuran-3-yl)oxy)-1H-imidazo[4,5-c]pyridin-1-yl)cyclohexyl)thiazole-2-carboxamide], the values for the negative logarithm of the IC50 (pIC50) on hBCAT1, at BCAT2 [1] and against BCAT2 [2] were more than 6.30, 6.30 to 7.00 and 6.30 to 7.00, respectively.
Regarding `O=C(N[C@@H]1C[C@@H](O)C[C@H](n2c(-c3ccccc3F)nc3cnc(-n4nccn4)cc32)C1)c1ncc(Cl)s1` (single isomer, unassigned) [Example 111], the pIC50 against hBCAT1 is more than 6.30; on BCAT2 [1] it was 6.30 to 7.00; against BCAT2 [2] it was 6.30 to 7.00.
Turning to `CC(=O)N1CC(NC(=O)c2ncc(C(F)F)s2)CC(n2c(-c3ncccc3F)nc3cnc(-n4nccn4)cc32)C1` (stereo not drawn) [Example 119, N-(1-acetyl-5-(2-(3-fluoropyridin-2-yl)-6-(2H-1,2,3-triazol-2-yl)-1H-imidazo[4,5-c]pyridin-1-yl)piperidin-3-yl)-5-(difluoromethyl)thiazole-2-carboxamide], the results for the pIC50 on hBCAT1, at BCAT2 [1] and on BCAT2 [2] were more than 6.30, not below 7.00 and 6.30 to 7.00, respectively.
For the compound `O=C(N[C@H]1CCC[C@@H](n2c(-c3ccccn3)nc3cnc(-n4cncn4)cc32)C1)c1ncc(C(F)F)s1` [Example 26, 5-(difluoromethyl)-N-((1S,3R)-3-(2-(pyridin-2-yl)-6-(1H-1,2,4-triazol-1-yl)-1H-imidazo[4,5-c]pyridin-1-yl)cyclohexyl)thiazole-2-carboxamide], the pIC50 is less than 5.30 against hBCAT1 and 6.30 to 7.00 on BCAT2 [1]. Moreover, the “BCAT2 Cell Inhibition” value at BCAT2 [2] was “E”.
The corresponding values for `O=C(N[C@H]1CCC[C@@H](n2c(-c3ccccn3)nc3cnc(-c4nn[nH]n4)cc32)C1)c1ncc(C(F)F)s1` [Example 50, 5-(difluoromethyl)-N-((1S,3R)-3-(2-(pyridin-2-yl)-6-(2H-tetrazol-5-yl)-1H-imidazo[4,5-c]pyridin-1-yl)cyclohexyl)thiazole-2-carboxamide] are more than 6.30, not below 7.00 and “E”.
For the compound `O=C(N[C@H]1CCC[C@@H](n2c(-c3ncccc3F)nc3cnc(-n4ccnn4)nc32)C1)c1ncc(C(F)F)s1` [Example 59, 5-(difluoromethyl)-N-((1S,3R)-3-(8-(3-fluoropyridin-2-yl)-2-(1H-1,2,3-triazol-1-yl)-9H-purin-9-yl)cyclohexyl)thiazole-2-carboxamide], the negative-log IC50 (pIC50) against hBCAT1 was less than 5.30; against BCAT2 [1] it was 6.30 to 7.00; on BCAT2 [2], less than 6.00.
Regarding `N#Cc1cnc(C(=O)N[C@H]2CCC[C@@H](n3c(-c4ncccc4F)nc4cnc(-n5nccn5)cc43)C2)s1` [Example 66, 5-cyano-N-((1S,3R)-3-(2-(3-fluoropyridin-2-yl)-6-(2H-1,2,3-triazol-2-yl)-1H-imidazo[4,5-c]pyridin-1-yl)cyclohexyl)thiazole-2-carboxamide], the pIC50 against hBCAT1 is more than 6.30; on BCAT2 [1], not below 7.00; on BCAT2 [2] it was not below 7.00.
`COc1cccc(-c2nc3cnc(-c4nc[nH]n4)cc3n2[C@@H]2CCC[C@H](NC(=O)c3ccc(Cl)s3)C2)c1F` [Example 348, 5-chloro-N-((1S,3R)-3-(2-(2-fluoro-3-methoxyphenyl)-6-(1H-1,2,4-triazol-3-yl)-1H-imidazo[4,5-c]pyridin-1-yl)cyclohexyl)thiophene-2-carboxamide]: the pIC50 against hBCAT1 is more than 6.30; against BCAT2 [1], not below 7.00; at BCAT2 [2], not below 7.00.
